In US11028075B2, “Therapeutic compounds and methods of use thereof” (GENENTECH, INC., priority 2018, dated 2021):
Where a name gives a salt, the structure may show the parent alone.

Columns and labels:
hNav1.7 [1] = target: T1, hNav1.7 (Homo sapiens (Human), UniProt Q15858); assay: Tritiated compound binding to membranes from cells heterologously expressing hNav1.7 and the β1 subunit (Nav1.7 LBA); conditions: competitive binding vs [3H]compound, membranes with hNav1.7 and β1 subunit; read-out: Nav1.7 LBA EVO IC50
In short: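 Membranes from cells expressing hNav1.7 with β1 were incubated at room temperature with a tritiated competitive Nav1.7 inhibitor plus test compound in 100 mM NaCl, 20 mM Tris pH 7.4, 0.01% BSA; nonspecific binding was set with 1 μM unlabeled compound. Incubation was 18 h with […] radioligand, or 3 h with […]. Bound ligand was filtered and counted, and IC50 came from a 4-parameter fit.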
Target sequence in this assay (Q15858 whole entry, looked up): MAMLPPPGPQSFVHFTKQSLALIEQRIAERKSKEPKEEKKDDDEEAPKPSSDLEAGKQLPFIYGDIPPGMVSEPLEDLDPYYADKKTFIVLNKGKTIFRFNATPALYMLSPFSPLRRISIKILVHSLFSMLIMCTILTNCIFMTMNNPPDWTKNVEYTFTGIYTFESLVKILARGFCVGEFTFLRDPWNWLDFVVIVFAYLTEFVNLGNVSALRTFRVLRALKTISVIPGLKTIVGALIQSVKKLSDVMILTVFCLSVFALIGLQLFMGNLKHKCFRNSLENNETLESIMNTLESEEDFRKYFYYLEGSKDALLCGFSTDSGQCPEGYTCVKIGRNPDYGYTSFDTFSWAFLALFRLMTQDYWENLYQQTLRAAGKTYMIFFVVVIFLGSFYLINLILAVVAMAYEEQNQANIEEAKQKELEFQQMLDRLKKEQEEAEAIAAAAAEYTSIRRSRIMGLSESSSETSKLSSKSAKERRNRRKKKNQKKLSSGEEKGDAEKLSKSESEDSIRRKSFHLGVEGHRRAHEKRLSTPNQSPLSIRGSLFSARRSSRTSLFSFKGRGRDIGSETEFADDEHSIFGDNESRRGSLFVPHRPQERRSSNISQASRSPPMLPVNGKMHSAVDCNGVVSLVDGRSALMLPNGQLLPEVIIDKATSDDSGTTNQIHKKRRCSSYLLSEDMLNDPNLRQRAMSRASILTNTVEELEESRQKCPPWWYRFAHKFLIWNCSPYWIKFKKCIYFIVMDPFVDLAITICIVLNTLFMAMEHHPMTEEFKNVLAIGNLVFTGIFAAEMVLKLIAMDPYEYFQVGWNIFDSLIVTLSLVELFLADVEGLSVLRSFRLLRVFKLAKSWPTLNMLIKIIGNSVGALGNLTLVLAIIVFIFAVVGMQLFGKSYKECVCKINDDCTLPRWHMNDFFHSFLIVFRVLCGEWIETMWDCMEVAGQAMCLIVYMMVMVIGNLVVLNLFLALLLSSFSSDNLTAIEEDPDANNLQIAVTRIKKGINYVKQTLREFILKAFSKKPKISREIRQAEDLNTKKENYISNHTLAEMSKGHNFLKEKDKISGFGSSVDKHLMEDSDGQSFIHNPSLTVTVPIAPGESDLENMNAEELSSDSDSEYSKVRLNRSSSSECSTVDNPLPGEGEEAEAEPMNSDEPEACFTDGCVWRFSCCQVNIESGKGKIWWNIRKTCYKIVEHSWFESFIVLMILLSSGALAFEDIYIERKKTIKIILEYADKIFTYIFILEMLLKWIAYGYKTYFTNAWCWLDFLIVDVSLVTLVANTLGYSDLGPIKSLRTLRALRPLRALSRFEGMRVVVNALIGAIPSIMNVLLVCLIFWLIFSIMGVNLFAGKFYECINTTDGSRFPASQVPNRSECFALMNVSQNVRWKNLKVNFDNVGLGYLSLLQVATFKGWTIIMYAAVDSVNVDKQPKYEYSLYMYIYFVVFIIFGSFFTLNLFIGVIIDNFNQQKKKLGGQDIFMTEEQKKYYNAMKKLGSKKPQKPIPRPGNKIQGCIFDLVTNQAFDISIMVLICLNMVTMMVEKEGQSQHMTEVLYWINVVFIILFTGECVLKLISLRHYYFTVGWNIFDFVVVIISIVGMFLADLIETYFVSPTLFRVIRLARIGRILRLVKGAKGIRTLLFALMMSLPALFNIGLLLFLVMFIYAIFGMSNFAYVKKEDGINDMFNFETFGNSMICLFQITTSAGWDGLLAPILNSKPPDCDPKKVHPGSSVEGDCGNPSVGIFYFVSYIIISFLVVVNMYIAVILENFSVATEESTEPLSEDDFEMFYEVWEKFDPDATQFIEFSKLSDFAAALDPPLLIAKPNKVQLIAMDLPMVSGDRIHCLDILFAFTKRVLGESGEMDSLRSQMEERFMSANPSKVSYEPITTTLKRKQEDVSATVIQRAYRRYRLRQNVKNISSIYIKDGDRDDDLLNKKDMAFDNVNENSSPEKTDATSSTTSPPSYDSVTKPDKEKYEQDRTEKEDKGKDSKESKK
Target sequence in this assay (Q07699 whole entry partner, looked up): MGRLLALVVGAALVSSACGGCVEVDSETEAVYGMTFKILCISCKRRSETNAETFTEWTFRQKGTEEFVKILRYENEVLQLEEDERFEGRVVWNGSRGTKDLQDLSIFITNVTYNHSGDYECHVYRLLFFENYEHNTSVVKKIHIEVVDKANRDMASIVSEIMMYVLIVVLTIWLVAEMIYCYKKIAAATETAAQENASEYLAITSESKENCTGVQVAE

hNav1.7 [2] = target: T1, hNav1.7; assay: Electrophysiological assay (EP), voltage clamp on Syncropatch 384PE, CHO cells stably expressing Nav1.7; assay type: cell-based; conditions: holding potential −50 mV, 7.5 min compound incubation, read-out: EP_SP hNav1.7 EVO IC50
In short: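 Whole-cell automated patch clamp was run on CHO cells stably expressing human Nav1.7 cDNA, with internal solution CsCl/EGTA pH 7.2, external solution 80 mM NaCl pH 7.4, and 0.1% Pluronic F-127. From a −50 mV holding potential: −10 mV for 10 ms, −150 mV for 20 ms, then −10 mV for 10 ms, where current was measured. Inhibition was taken after 7.5 min compound incubation, with TTX added for full block.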
Target sequence in this assay (Q15858 other isoform, or with tags, fused parts or gaps): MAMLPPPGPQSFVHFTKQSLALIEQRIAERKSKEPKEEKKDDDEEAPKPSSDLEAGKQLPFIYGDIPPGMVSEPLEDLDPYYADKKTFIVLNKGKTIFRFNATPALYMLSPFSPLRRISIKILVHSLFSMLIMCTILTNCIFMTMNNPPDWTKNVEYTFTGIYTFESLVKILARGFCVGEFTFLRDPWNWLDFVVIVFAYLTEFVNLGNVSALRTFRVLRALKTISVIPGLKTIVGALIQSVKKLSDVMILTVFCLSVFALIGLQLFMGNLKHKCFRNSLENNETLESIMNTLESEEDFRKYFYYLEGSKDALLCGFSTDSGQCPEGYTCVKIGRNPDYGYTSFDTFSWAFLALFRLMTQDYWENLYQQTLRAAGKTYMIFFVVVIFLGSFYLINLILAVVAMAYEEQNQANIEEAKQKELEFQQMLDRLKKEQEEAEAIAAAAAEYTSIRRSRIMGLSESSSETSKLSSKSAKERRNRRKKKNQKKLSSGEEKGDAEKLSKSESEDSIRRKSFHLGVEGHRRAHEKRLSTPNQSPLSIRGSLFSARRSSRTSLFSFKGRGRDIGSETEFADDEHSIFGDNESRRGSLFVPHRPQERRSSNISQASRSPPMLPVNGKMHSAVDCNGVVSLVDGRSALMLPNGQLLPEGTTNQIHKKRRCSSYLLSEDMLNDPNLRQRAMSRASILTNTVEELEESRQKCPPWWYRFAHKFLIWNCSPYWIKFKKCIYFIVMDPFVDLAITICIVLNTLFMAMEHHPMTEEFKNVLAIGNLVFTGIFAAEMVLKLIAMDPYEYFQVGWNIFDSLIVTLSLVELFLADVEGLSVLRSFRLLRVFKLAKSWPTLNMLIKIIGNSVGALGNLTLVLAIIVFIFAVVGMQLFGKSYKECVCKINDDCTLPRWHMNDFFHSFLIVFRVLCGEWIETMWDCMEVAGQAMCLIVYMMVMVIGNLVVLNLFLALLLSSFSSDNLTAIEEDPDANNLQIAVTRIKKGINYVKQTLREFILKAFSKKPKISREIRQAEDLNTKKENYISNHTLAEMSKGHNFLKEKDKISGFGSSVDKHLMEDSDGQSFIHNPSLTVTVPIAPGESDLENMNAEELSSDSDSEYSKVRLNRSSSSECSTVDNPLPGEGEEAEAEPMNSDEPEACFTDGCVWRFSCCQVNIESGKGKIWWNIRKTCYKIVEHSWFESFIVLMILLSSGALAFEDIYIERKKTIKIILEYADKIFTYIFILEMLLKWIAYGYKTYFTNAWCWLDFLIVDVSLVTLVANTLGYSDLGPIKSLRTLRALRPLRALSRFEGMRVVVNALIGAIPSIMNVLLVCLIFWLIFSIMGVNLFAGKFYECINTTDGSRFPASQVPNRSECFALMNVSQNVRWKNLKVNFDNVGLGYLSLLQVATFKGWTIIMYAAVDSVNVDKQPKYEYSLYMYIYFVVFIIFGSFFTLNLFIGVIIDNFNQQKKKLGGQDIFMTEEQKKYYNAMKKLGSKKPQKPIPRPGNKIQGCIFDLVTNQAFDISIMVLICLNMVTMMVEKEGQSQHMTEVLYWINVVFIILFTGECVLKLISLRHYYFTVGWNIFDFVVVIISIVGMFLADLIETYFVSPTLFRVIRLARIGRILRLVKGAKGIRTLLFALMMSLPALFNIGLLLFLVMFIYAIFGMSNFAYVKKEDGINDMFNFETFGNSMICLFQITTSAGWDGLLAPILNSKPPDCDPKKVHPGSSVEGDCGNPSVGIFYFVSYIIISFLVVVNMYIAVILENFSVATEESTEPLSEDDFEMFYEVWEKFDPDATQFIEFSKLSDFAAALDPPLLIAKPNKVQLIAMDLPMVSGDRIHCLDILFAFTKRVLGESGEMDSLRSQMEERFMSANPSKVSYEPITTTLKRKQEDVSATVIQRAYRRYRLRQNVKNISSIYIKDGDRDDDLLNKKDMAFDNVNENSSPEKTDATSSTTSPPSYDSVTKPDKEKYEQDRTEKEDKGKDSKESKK

Compound	IC50 (hNav1.7 [1]) [nM]	IC50 (hNav1.7 [2]) [nM]
CN1CC(C(=O)N(C)[C@H]2C[C@@H](c3cccc(C(F)(F)F)c3)CC[C@@H]2Nc2cc(F)c(S(=O)(=O)Nc3ccncn3)cc2Cl)C1 [Example 39, N-((1S,2S,5S)-2-((2-Chloro-5-fluoro-4-(N-(pyrimidin-4-yl)sulfamoyl)phenyl)amino)-5-(3-(trifluoromethyl)phenyl)cyclohexyl)-N,1-dimethylazetidine-3-carboxamide]	2.07	0.83
CN(C)[C@H]1C[C@@H](c2cccc(C3COC3)c2)CC[C@@H]1Nc1cc(F)c(S(=O)(=O)Nc2ccncn2)cc1Cl [Example 44, 5-chloro-4-(((1S,2S,4S)-2-(dimethylamino)-4-(3-(oxetan-3-yl)phenyl)cyclohexyl)amino)-2-fluoro-N-(pyrimidin-4-yl)benzenesulfonamide]	45.8	9.11
CN1CC(N(C)[C@H]2C[C@@H](c3cccc(C(F)(F)F)c3)CC[C@@H]2Nc2cc(F)c(S(=O)(=O)Nc3ccncn3)cc2Cl)C1 [Example 45, 5-chloro-2-fluoro-4-(((1S,2S,4S)-2-(methyl(1-methylazetidin-3-yl)amino)-4-(3-(trifluoromethyl)phenyl)cyclohexyl)amino)-N-(pyrimidin-4-yl)benzenesulfonamide]	0.399	0.241
O=S(=O)(Nc1ccncn1)c1cc(O)c(N[C@H]2CC[C@H](c3cccc(C(F)(F)F)c3)C[C@@H]2N2CCCC2)cc1F [Example 46, 2-Fluoro-5-hydroxy-N-(pyrimidin-4-yl)-4-(((1S,2S,4S)-2-(pyrrolidin-1-yl)-4-(3-(trifluoromethyl)-phenyl)cyclohexyl)amino)benzenesulfonamide formate]	24.5	1.9
O=S(=O)(Nc1ccncn1)c1cc2c(cc1F)N([C@H]1CC[C@H](c3cccc(C(F)(F)F)c3)C[C@@H]1N1CCCC1)CCO2 [Example 47, 6-Fluoro-N-(pyrimidin-4-yl)-4-((1S,2S,4S)-2-(pyrrolidin-1-yl)-4-(3-(trifluoromethyl)phenyl)-cyclohexyl)-3,4-dihydro-2H-benzo[b][1,4]oxazine-7-sulfonamide]	0.794	1.16
CN(C)[C@H]1C[C@@H](c2cccc(C(F)(F)F)c2)CC[C@@H]1Oc1cc(F)c(S(=O)(=O)Nc2ccncn2)cc1F [Example 48, 4-(((1S,2S,4S)-2-(dimethylamino)-4-(3-(trifluoromethyl)phenyl)cyclohexyl)oxy)-2,5-difluoro-N-(pyrimidin-4-yl)benzenesulfonamide formate]	37.7	3.34
O=C1COc2cc(S(=O)(=O)Nc3ccncn3)c(F)cc2N1[C@H]1CC[C@H](c2cccc(C(F)(F)F)c2)C[C@@H]1N1CCCC1 [Example 49, 6-Fluoro-3-oxo-N-(pyrimidin-4-yl)-4-((1S,2S,4S)-2-(pyrrolidin-1-yl)-4-(3-(trifluoromethyl)-phenyl)cyclohexyl)-3,4-dihydro-2H-benzo[b][1,4]oxazine-7-sulfonamide]	23.6	2.73
O=S(=O)(Nc1ccncn1)c1cc(F)c(N[C@H]2CC[C@H](c3cc(C(F)(F)F)ccc3F)C[C@@H]2N2CCCC2)cc1F [Example 50, 2,5-difluoro-4-(((1S,2S,4S)-4-(2-fluoro-5-(trifluoromethyl)phenyl)-2-(pyrrolidin-1-yl)cyclohexyl)amino)-N-(pyrimidin-4-yl)benzenesulfonamide]	3.88	1.21
CN(C)[C@H]1C[C@@H](c2cccc(C(F)(F)F)c2)CC[C@@H]1N1C(=O)CCc2cc(S(=O)(=O)Nc3ccncn3)c(F)cc21 [Example 55, 1-((1S,2S,4S)-2-(Dimethylamino)-4-(3-(trifluoromethyl)phenyl)cyclohexyl)-7-fluoro-2-oxo-N-(pyrimidin-4-yl)-1,2,3,4-tetrahydroquinoline-6-sulfonamide]	6.73	2.68
CN(C)[C@H]1C[C@@H](c2cccc(C(F)(F)F)c2)CC[C@@H]1Oc1cc(F)c(S(=O)(=O)Nc2ccncn2)cc1Br [Example 56, 5-Bromo-4-(((1S,2S,4S)-2-(dimethylamino)-4-(3-(trifluoromethyl)phenyl)cyclohexyl)oxy)-2-fluoro-N-(pyrimidin-4-yl)benzenesulfonamide]	1.92	0.528
CN(C)[C@H]1C[C@@H](c2cccc(OC(F)(F)F)c2)CC[C@@H]1Oc1cc(F)c(S(=O)(=O)Nc2ccncn2)cc1F [Example 59, 4-(((1S,2S,4S)-2-(dimethylamino)-4-(3-(trifluoromethoxy)phenyl)cyclohexyl)oxy)-2,5-difluoro-N-(pyrimidin-4-yl)benzenesulfonamide formate]	32.6	1.62
CN[C@H]1C[C@@H](c2cccc(C(F)(F)F)c2)CC[C@@H]1Oc1cc(F)c(S(=O)(=O)Nc2ccncn2)cc1Cl [Example 63, 5-chloro-2-fluoro-4-(((1S,2S,4S)-2-(methylamino)-4-(3-(trifluoromethyl)phenyl)-cyclohexyl)oxy)-N-(pyrimidin-4-yl)benzenesulfonamide]	11.2	0.709

Continued by falling IC50 (hNav1.7 [1]), values first:

IC50 (hNav1.7 [1]) [nM]	IC50 (hNav1.7 [2]) [nM]	Compound
169	4.65	CN(C)[C@H]1C[C@@H](c2cccc(C(F)(F)F)c2)CC[C@@H]1N(C)c1cc(F)c(S(=O)(=O)Nc2ccncn2)cc1Cl [Example 51, 5-Chloro-4-(((1S,2S,4S)-2-(dimethylamino)-4-(3-(trifluoromethyl)phenyl)cyclohexyl)-(methyl)amino)-2-fluoro-N-(pyrimidin-4-yl)benzenesulfonamide formate]
35.3	2.59	CN(C)[C@H]1C[C@@H](c2cccc(C(F)(F)F)c2)CC[C@@H]1Oc1ccc(S(=O)(=O)Nc2ccncn2)c(F)c1 [Example 57, 4-(((1S,2S,4S)-2-(Dimethylamino)-4-(3-(trifluoromethyl)phenyl)cyclohexyl)oxy)-2-fluoro-N-(pyrimidin-4-yl)benzenesulfonamide formate]
22.7	2.73	O=S(=O)(Nc1ccncn1)c1cc(F)c(O[C@H]2CC[C@H](c3cccc(C(F)(F)F)c3)C[C@@H]2N2CCCC2)cc1F [Example 58, 2,5-difluoro-N-(pyrimidin-4-yl)-4-(((1S,2S,4S)-2-(pyrrolidin-1-yl)-4-(3-(trifluoromethyl)-phenyl)cyclohexyl)oxy)benzenesulfonamide]
8.03	0.905	CN(C1CCC1)[C@H]1C[C@@H](c2cccc(C(F)(F)F)c2)CC[C@@H]1Nc1cc(F)c(S(=O)(=O)Nc2ccncn2)cc1F [Example 40, 4-(((1S,2S,4S)-2-(cyclobutyl(methyl)amino)-4-(3-(trifluoromethyl)phenyl)cyclohexyl)amino)-2,5-difluoro-N-(pyrimidin-4-yl)benzenesulfonamide formate]
7	1.12	CN(C)[C@H]1C[C@@H](c2cccc(OC3CC3)c2)CC[C@@H]1Nc1cc(F)c(S(=O)(=O)Nc2ccncn2)cc1Cl [Example 43]
1.6	0.745	O=S(=O)(Nc1ccncn1)c1cc(Cl)c(O[C@H]2CC[C@H](c3cccc(C(F)(F)F)c3)C[C@@H]2N2CCCC2)cc1F [Example 60, 5-chloro-2-fluoro-N-(pyrimidin-4-yl)-4-(((1S,2S,4S)-2-(pyrrolidin-1-yl)-4-(3-(trifluoromethyl)-phenyl)cyclohexyl)oxy)benzenesulfonamide formate]
1.54	0.322	O=S(=O)(Nc1ccncn1)c1cc(F)c(N[C@H]2CC[C@H](c3cccc(OC(F)(F)F)c3)C[C@@H]2N2CCCC2)cc1F [Example 61, 2,5-difluoro-N-(pyrimidin-4-yl)-4-(((1S,2S,4S)-2-(pyrrolidin-1-yl)-4-(3-(trifluoromethoxy)-phenyl)cyclohexyl)amino)benzenesulfonamide formate]
0.816	0.628	O=S(=O)(Nc1ccncn1)c1cc(F)c(N[C@H]2CC[C@H](c3cccc(C(F)(F)F)c3)C[C@@H]2N2CCCCC2)cc1F [Example 62, 2,5-difluoro-4-(((1S,2S,4S)-2-(piperidin-1-yl)-4-(3-(trifluoromethyl)phenyl)cyclohexyl)-amino)-N-(pyrimidin-4-yl)benzenesulfonamide formate]
0.657	0.141	CN(C1CNC1)[C@H]1C[C@@H](c2cccc(C(F)(F)F)c2)CC[C@@H]1Nc1cc(F)c(S(=O)(=O)Nc2ccncn2)cc1Cl [Example 42, 4-(((1S,2S,4S)-2-(azetidin-3-yl(methyl)amino)-4-(3-(trifluoromethyl)phenyl)cyclohexyl)-amino)-5-chloro-2-fluoro-N-(pyrimidin-4-yl)benzenesulfonamide]
0.623	0.534	CN(CCO)[C@H]1C[C@@H](c2cccc(C(F)(F)F)c2)CC[C@@H]1Nc1cc(F)c(S(=O)(=O)Nc2ccncn2)cc1Cl [Example 41, 5-chloro-2-fluoro-4-(((1S,2S,4S)-2-((2-hydroxyethyl)(methyl)amino)-4-(3-(trifluoromethyl)-phenyl)cyclohexyl)amino)-N-(pyrimidin-4-yl)benzenesulfonamide]
0.604	1.41	CN(C)[C@H]1C[C@@H](c2cccc(C(F)(F)F)c2)CC[C@@H]1N1CCCc2cc(S(=O)(=O)Nc3ccncn3)c(F)cc21 [Example 54, 1-((1S,2S,4S)-2-(Dimethylamino)-4-(3-(trifluoromethyl)phenyl)cyclohexyl)-7-fluoro-N-(pyrimidin-4-yl)-1,2,3,4-tetrahydroquinoline-6-sulfonamide]
